# According to patent publication US20210284668A1, “GOLD (I)-PHOSPHINE 1,2,3-TRIAZOLE DERIVATIVES WITH ANTIBIOTIC PROPERTIES” (Centre National de la Recherche Scientifique, priority 2018, published 2021):
# Values joined by “and” are separate entries in the source; they are usually repeats but may differ in a detail not shown here. Equal entries are not always repeated.
# Columns and labels:
# S. aureus ST20131365 = assay: MIC by microdilution, S. aureus ST20131365; type: cell-based, Staphylococcus aureus; settings: S. aureus ST20131365 (MecA positive, glycopeptide resistant), in duplicate
# Description: (§1) The antibacterial profile of each derivative was evaluated by the standard microdilution method for susceptibility testing on 16 different strains, following the guidelines of CLSI. The selected panel included: • S. aureus ATCC25923 (MecA negative, wild-type) • S. aureus ATCC29213 (MecA negative, wild-type) • S. aureus ATCC700699 (MecA positive, glycopeptide resistant) • S. aureus ST20131365 (MecA positive, glycopeptide resistant) • S. epidermidis ATCC14990 (MecA negative, wild-type) • S. epidermidis ATCC35984 (MecA positive) • S. epidermidis ST20140436 (MecA positive, glycopeptide resistant) • S. epidermidis ST20150446 (MecA positive, glycopeptide resistant) • E. faecalis JH2-2 (wild-type) • E. faecalis UCN41 (VanA positive, glycopeptide resistant) • E. faecalis V583 (VanB positive, glycopeptide resistant) • E. faecium ATCC19434T (wild-type) • E. faecium BM4147 (VanA positive, glycopeptide resistant) • E. faecium AUS0004 (VanB positive, glycopeptide resistant) • E. coli ATCC25922 (wild-type) • Clostridium difficile ATCC9689 (wild-type)
# (§2) Both series issued from the SAR study were evaluated for their antibacterial activity on a panel of characterized strains obtained from the French National Reference Centers for Staphylococci (Lyon, Pr. Fréderique Laurent) and for Enterococci (Caen, Pr. Vincent Cattoir), respectively. As shown in the following tables, both series contain very active compounds on multi-resistant Gram-positive bacteria (Minimal Inhibitory Concentrations lower than comparator antibiotic ampicillin). Furthermore, a very important antibacterial effect has been shown too on a strain of Clostridium difficile, a Gram-positive, spore-forming, bacillus responsible for post-antibiotic diarrhoae.
# (§3) The antibacterial activity of test compounds was evaluated on a selected panel of Gram-positive (4 Staphylococcus aureus, 4 Staphylococcus epidermidis, 3 Enterococcus faecalis, 3 Enterococcus faecium, 1 Clostridium difficile) and Gram-negative strains (1 Escherichia coli, 1 Klebsiella pneumoniae, 1 Pseudomonas aeruginosa, 1 Acinetacter baumannii) with known features of antibiotic resistance (from wild-type susceptibility to multi-drug resistance). The Minimal Inhibitory Concentration (MIC) of test compounds was determined in duplicate by the microdilution method in 96-well microplates with a final volume of 100 μL per well and Mueller-Hinton broth as the growth medium, as recommended by the CLSI (Clinical and Laboratory Standards Institute, document Mo7-A10, USA).
# E. coli ATCC25922 = assay: MIC by microdilution, E. coli ATCC25922; type: cell-based, Escherichia coli; settings: E. coli ATCC25922 (wild-type), in duplicate
# Description: as §1, §2, §3
# E. faecalis V583 = assay: MIC by microdilution, E. faecalis V583; type: cell-based, Enterococcus faecalis; settings: E. faecalis V583 (VanB positive, glycopeptide resistant), in duplicate
# Description: as §1, §2, §3
# S. aureus ATCC29213 = assay: MIC by microdilution, S. aureus ATCC29213; type: cell-based, Staphylococcus aureus; settings: S. aureus ATCC29213 (MecA negative, wild-type), Mueller-Hinton broth, in duplicate
# Description: as §1, §2, §3
# S. aureus ATCC25923 = assay: MIC by microdilution, S. aureus ATCC25923; type: cell-based, Staphylococcus aureus; settings: S. aureus ATCC25923 (MecA negative, wild-type), Mueller-Hinton broth, in duplicate
# Summary of the method: (§4)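 Broth microdilution per CLSI document M07-A10, Mueller-Hinton medium, each MIC run in duplicate. Strains include E. coli ATCC25922 (wild-type), S. epidermidis ATCC35984 (MecA positive) and S. aureus ATCC700699 (MecA positive, glycopeptide resistant), within a mixed panel of susceptible and resistant Gram-positive/Gram-negative bacteria.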
# E. faecium ATCC19434T = assay: MIC by microdilution, E. faecium ATCC19434T; type: cell-based, Enterococcus faecium; design: unit not given here; settings: E. faecium ATCC19434T (wild-type), in duplicate
# Summary of the method: as §4
# E. faecium AUS0004 = assay: MIC by microdilution, E. faecium AUS0004; type: cell-based, Enterococcus faecium; settings: E. faecium AUS0004 (VanB positive, glycopeptide resistant), in duplicate
# Description: as §1, §2, §3
# [1] = tested on: Clostridium difficile ATCC700057; assay: MIC by microdilution, Clostridium difficile; type: cell-based; settings: strain ATCC70057 [sic] (Tables 1-2) / ATCC700057 (Tables 3-10), in duplicate
# [2] = tested on: S. epidermidis ST20150446; assay: MIC by microdilution, S. epidermidis ST20150446; type: cell-based, Staphylococcus epidermidis; settings: S. epidermidis ST20150446 (MecA positive, glycopeptide resistant), in duplicate
# Description: as §1, §2, §3
# E. faecalis UCN41 = assay: MIC by microdilution, E. faecalis UCN41; type: cell-based, Enterococcus faecalis; design: unit not given here; settings: E. faecalis UCN41 (VanA positive, glycopeptide resistant), in duplicate
# Summary of the method: as §4
# E. faecium BM4147 = assay: MIC by microdilution, E. faecium BM4147; type: cell-based, Enterococcus faecium; design: unit not given here; settings: E. faecium BM4147 (VanA positive, glycopeptide resistant), in duplicate
# Summary of the method: as §4
# S. aureus ATCC700699 = assay: MIC by microdilution, S. aureus ATCC700699; type: cell-based, Staphylococcus aureus; design: unit not given here; settings: S. aureus ATCC700699 (MecA positive, glycopeptide resistant), in duplicate
# Summary of the method: as §4
# [3] = tested on: panel of Gram-positive and Gram-negative strains; assay: Antibacterial profile on the selected panel of strains; type: cell-based; settings: summary of Tables 1-12
# Summary of the method: as §4
# E. faecalis JH2-2 = assay: MIC by microdilution, E. faecalis JH2-2; type: cell-based, Enterococcus faecalis; design: unit not given here; settings: E. faecalis JH2-2 (wild-type), in duplicate
# Summary of the method: as §4
# S. epidermidis ATCC14990 = assay: MIC by microdilution, S. epidermidis ATCC14990; type: cell-based, Staphylococcus epidermidis; settings: S. epidermidis ATCC14990 (MecA negative, wild-type), in duplicate
# Summary of the method: as §4
# S. epidermidis ATCC35984 = assay: MIC by microdilution, S. epidermidis ATCC35984; type: cell-based, Staphylococcus epidermidis; settings: S. epidermidis ATCC35984 (MecA positive), in duplicate
# Summary of the method: as §4
# [4] = tested on: S. epidermidis ST20140436; assay: MIC by microdilution, S. epidermidis ST20140436; type: cell-based, Staphylococcus epidermidis; settings: S. epidermidis ST20140436 (MecA positive, glycopeptide resistant), in duplicate
# Description: as §1, §2, §3
Compound,Minimal Inhibitory Concentration (MIC) (S. aureus ST20131365),Minimal Inhibitory Concentration (MIC) (E. coli ATCC25922),Minimal Inhibitory Concentration (MIC) (E. faecalis V583),Minimal Inhibitory Concentration (MIC) (S. aureus ATCC29213),Minimal Inhibitory Concentration (MIC) (S. aureus ATCC25923),Minimal Inhibitory Concentration (MIC) (E. faecium ATCC19434T),Minimal Inhibitory Concentration (MIC) (E. faecium AUS0004),Minimal Inhibitory Concentration (MIC) [1],Minimal Inhibitory Concentration (MIC) [2],Minimal Inhibitory Concentration (MIC) (E. faecalis UCN41),Minimal Inhibitory Concentration (MIC) (E. faecium BM4147),Minimal Inhibitory Concentration (MIC) (S. aureus ATCC700699),antimicrobial / antibacterial activity (in words) [3],Minimal Inhibitory Concentration (MIC) (E. faecalis JH2-2),Minimal Inhibitory Concentration (MIC) (S. epidermidis ATCC14990),Minimal Inhibitory Concentration (MIC) (S. epidermidis ATCC35984),Minimal Inhibitory Concentration (MIC) [4]
CC[P+](CC)(CC)[Au-][c]1nn[nH]c1-c1ccc(C(=O)NC(C(=O)O)c2ccccc2)cc1 (stereo not drawn) [TMB23],0.125,>8,0.125 and 0.25,0.125,≤0.06,0.25,0.25,≤0.06,≤0.06,0.125,0.25 and 0.5,0.125,have antimicrobial activity,0.25,≤0.06,–,–
CC[P+](CC)(CC)[Au-][c]1nn[nH]c1COC(=O)N[C@H](CC(=O)O)C(=O)O [TMB29],0.125,>8,0.25,0.125,0.125,0.25,0.5,≤0.06,–,0.25,0.25 and 0.5,0.125,have antimicrobial activity,0.25,≤0.06,≤0.06,≤0.06
CC[P+](CC)(CC)[Au-][c]1nn[nH]c1-c1cn[nH]c1 [TMB31],–,>8,0.25,≤0.06,≤0.06,0.25,0.25,≤0.06,≤0.06,0.25,0.25,0.125,have antimicrobial activity,0.25,≤0.06,≤0.06,≤0.06
CC[P+](CC)(CC)[Au-][c]1nn[nH]c1COC(=O)N[C@@H](CCCNC(=N)N[N+](=O)[O-])C(=O)O [TMB35],0.25,>8,1,0.25,0.125,0.5,1,0.125,0.125 and 0.25,1,1,0.25,have antimicrobial activity,1,≤0.06,–,0.125
